Reference: ChEMBL document CHEMBL1147311, “Plant antimutagenic agents, 7. Structure and antimutagenic properties of cymobarbatol and 4-isocymobarbatol, new cymopols from green alga (Cymopolia barbata)” (J Nat Prod, 1989)
Calls of active or inactive are those of the source. The rule behind the calls is not given here.

Key:
[1] = tested on: Salmonella typhimurium; experiment: Toxicity in Salmonella Typhimurium T100 at 75 to 300 ug/plate in presence of histidine; type: organism-based, Salmonella enterica subsp. enterica serovar Typhimurium
[2] = tested on: Salmonella typhimurium; experiment: Toxicity in Salmonella Typhimurium T98 at 75 to 300 ug/plate in presence of histidine; type: organism-based, Salmonella enterica subsp. enterica serovar Typhimurium
[3] = tested on: Salmonella typhimurium; experiment: Antimutagenic activity in Salmonella Typhimurium T100 assessed as inhibition of ethyl methanesulfonate-induced mutation at 32.5 to 300 ug/plate in presence of Ames S9 fractions; type: functional, Salmonella enterica subsp. enterica serovar Typhimurium
[4] = tested on: Salmonella typhimurium; experiment: Antimutagenic activity in Salmonella Typhimurium T98 assessed as inhibition of 2-aminoanthracene-induced mutation at 300 ug/plate; type: functional, organism-based; conditions: Salmonella enterica subsp. enterica serovar Typhimurium
[5] = tested on: Salmonella typhimurium; experiment: Antimutagenic activity in Salmonella Typhimurium T98 assessed as inhibition of 2-aminoanthracene-induced mutation at 150 ug/plate; type: functional, organism-based; conditions: Salmonella enterica subsp. enterica serovar Typhimurium
[6] = tested on: Salmonella typhimurium; experiment: Antimutagenic activity in Salmonella Typhimurium T98 assessed as inhibition of 2-aminoanthracene-induced mutation at 75 ug/plate; type: functional, organism-based; conditions: Salmonella enterica subsp. enterica serovar Typhimurium
[7] = tested on: Salmonella typhimurium; experiment: Toxicity in Salmonella Typhimurium T100 at 75 to 600 ug/plate in presence of histidine; type: organism-based, Salmonella enterica subsp. enterica serovar Typhimurium
[8] = tested on: Salmonella typhimurium; experiment: Toxicity in Salmonella Typhimurium T98 at 75 to 600 ug/plate in presence of histidine; type: organism-based, Salmonella enterica subsp. enterica serovar Typhimurium

SMILES | Activity [1] | Activity [2] | inhibition (INH) [3] [%] | Activity [4] | Activity [5] | Activity [6] | Activity [7] | Activity [8]
CC1(C)[C@@H](Br)CC[C@@]2(C)Oc3cc(Br)c(O)cc3C[C@@H]12 [CYMOBARBATOL] | Non-toxic | Non-toxic | 80 | Active | Active | – | – | –
CC1(C)[C@@H](Br)CC[C@]2(C)Oc3cc(Br)c(O)cc3C[C@@H]12 | Non-toxic | Non-toxic | – | Active | Active | Active | – | –
CC(C)=CCC/C(C)=C/Cc1cc(O)c(Br)cc1O [CYMOPOL] | – | – | – | – | – | – | Toxic | Toxic
